Source: ChEMBL document CHEMBL5576047, “Synthesis of a new 2-prenylated quinoline as potential drug for metabolic syndrome with pan-PPAR activity and anti-inflammatory effects” (Bioorg Med Chem Lett, 2024)

Key:
Assay type in all cases: cell-based; call rule not given here
[1] = molecular target: T1, Peroxisome proliferator-activated receptor alpha (Homo sapiens, UniProt Q07869); assay: Agonist activity at GAL4-tagged human PPARalpha transfected in African green monkey COS7 cells assessed as transcriptional activation by measuring effective concentration incubated for 24 hrs by luciferase assay
T1 sequence (Q07869 whole entry): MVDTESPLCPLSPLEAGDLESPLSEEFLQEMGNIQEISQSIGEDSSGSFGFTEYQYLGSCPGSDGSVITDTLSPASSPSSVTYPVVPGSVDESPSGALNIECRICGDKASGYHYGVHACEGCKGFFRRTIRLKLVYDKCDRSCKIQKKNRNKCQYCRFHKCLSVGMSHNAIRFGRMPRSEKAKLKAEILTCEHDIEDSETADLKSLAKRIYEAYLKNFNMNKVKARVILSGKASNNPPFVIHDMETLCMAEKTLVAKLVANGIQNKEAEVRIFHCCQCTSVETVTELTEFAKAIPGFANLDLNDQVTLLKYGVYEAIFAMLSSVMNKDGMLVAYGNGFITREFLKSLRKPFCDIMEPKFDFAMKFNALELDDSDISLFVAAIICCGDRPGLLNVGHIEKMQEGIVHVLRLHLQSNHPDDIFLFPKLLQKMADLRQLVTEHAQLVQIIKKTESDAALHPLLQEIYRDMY

[2] = molecular target: T2, Peroxisome proliferator-activated receptor gamma (Homo sapiens, UniProt P37231); assay: Agonist activity at GAL4-tagged human PPARgamma transfected in African green monkey COS7 cells assessed as transcriptional activation by measuring effective concentration incubated for 24 hrs by luciferase assay
T2 sequence (P37231 whole entry): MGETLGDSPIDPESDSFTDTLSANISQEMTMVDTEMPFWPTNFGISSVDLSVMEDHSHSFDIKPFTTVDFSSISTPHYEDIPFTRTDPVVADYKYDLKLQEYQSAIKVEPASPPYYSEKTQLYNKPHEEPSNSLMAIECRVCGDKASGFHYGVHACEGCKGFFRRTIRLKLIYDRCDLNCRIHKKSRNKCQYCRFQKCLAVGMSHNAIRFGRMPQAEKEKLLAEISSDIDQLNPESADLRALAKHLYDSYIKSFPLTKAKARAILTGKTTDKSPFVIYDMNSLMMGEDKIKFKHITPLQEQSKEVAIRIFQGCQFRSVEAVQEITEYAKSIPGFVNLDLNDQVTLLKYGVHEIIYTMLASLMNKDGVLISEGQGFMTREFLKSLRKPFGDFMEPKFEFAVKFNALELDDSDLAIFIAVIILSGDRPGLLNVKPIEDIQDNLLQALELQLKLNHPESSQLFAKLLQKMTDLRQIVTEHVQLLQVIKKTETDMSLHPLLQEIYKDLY

[3] = molecular target: T3, Peroxisome proliferator-activated receptor delta (Homo sapiens, UniProt Q03181); assay: Agonist activity at GAL4-tagged human PPARbeta/delta transfected in African green monkey COS7 cells assessed as transcriptional activation by measuring effective concentration incubated for 24 hrs by luciferase assay
T3 sequence (Q03181 whole entry): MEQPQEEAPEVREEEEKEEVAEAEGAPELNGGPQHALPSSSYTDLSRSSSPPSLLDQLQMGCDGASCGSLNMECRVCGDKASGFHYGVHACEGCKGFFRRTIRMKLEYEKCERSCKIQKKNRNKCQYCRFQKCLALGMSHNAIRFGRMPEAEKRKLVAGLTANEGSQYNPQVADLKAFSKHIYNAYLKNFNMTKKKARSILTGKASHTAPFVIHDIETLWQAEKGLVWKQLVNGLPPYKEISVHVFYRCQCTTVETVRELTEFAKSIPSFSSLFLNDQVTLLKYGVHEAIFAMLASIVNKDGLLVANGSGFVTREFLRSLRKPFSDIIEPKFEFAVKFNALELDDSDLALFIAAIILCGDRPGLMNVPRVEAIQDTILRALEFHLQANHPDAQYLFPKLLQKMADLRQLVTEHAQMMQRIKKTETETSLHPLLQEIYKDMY

| SMILES | EC50 ([1]; cos7) | EC50 ([2]; cos7) | EC50 ([1]; read-out: EC50) | further results |
| --- | --- | --- | --- | --- |
| Cc1cc(SCc2sc(-c3ccc(C(F)(F)F)cc3)nc2C)ccc1OCC(=O)O [GW501516] | Not Active | – | – | – |
| Cc1cccc(Nc2cc(Cl)nc(SCC(=O)O)n2)c1C [PIRINIXIC ACID] | – | Not Active | – | – |
| CN(CCOc1ccc(CC2SC(=O)NC2=O)cc1)c1ccccn1 (centres undefined) [ROSIGLITAZONE] | Not Active | – | – | – |

More lines, main results first:

| EC50 ([1]; cos7) | EC50 ([2]; cos7) | EC50 ([1]; read-out: EC50) | SMILES | further results |
| --- | --- | --- | --- | --- |
| Not Active | Not Active | – | CCOC(=O)/C(=C/CCC1(C)CCc2cc(OCc3ccccc3)ccc2O1)OCC(F)(F)F (centres undefined) | – |
| – | – | 2.95 µM | CCOC(=O)CC/C(C)=C/CCC1(C)CCc2cc(OCc3ccccc3)ccc2O1 (centres undefined) | EC50 ([2]; read-out: EC50): 1.59 µM |
| – | – | 3.2 µM | CCOC(=O)CC/C(C)=C/CCc1ccc2cc(OCc3ccccc3)ccc2n1 | EC50 [3]: 1.51 µM |
